43 molecules from ChEMBL document CHEMBL1144872, “A quantitative structure-activity relationship and pharmacophore modeling investigation of aryl-X and heterocyclic bisphosphonates as bone resorption agents” (J Med Chem, 2003) can be followed below.

In general, IC50 refers to the midpoint of a concentration-inhibition curve. Low values mean greater potency, high ones weaker potency.

For this assay, the target named is bone resorption (Rattus norvegicus).

On to `O=P(O)(O)C(O)(CCNCCCSc1ccccc1)P(=O)(O)O`, for which the IC50 was 18.2 nM.

`CCCc1cnc(NC(P(=O)(O)O)P(=O)(O)O)s1` gave an IC50 of 6.15 nM. Compared with the last molecule, the IC50 is about 3-fold lower.

Turning to `Cc1cnc(NC(P(=O)(O)O)P(=O)(O)O)s1`, half-maximal inhibition (IC50) required 5.13 nM.

As for `O=P(O)(O)C(Nc1ncc[nH]1)P(=O)(O)O`, the IC50 was 1950 nM.

Turning to `CN(CCCSc1ccccc1)CCC(O)(P(=O)(O)O)P(=O)(O)O`, the IC50 is 0.618 nM.

In turn, `CCc1cnc(NC(P(=O)(O)O)P(=O)(O)O)s1` showed an IC50 of 4.82 nM. Against the preceding molecule, the IC50 is about 7.8-fold higher.

With `O=P(O)(O)C(Nc1nccs1)P(=O)(O)O`, the 50% inhibitory concentration (IC50) is 18.2 nM.

With `Cc1cccc(OCCCN(C)CCC(O)(P(=O)(O)O)P(=O)(O)O)c1`, 4.27 nM corresponded to half-maximal inhibition (IC50).

`Cn1ccnc1CC(O)(P(=O)(O)O)P(=O)(O)O` showed an IC50 of 1.97 nM.

As for `CN(CCCc1ccc(Cl)cc1)CCC(O)(P(=O)(O)O)P(=O)(O)O`, inhibition was half-maximal at 1.66 nM (IC50). The IC50 values of the last two molecules are within 1.5-fold of each other.

`CN(CCCOc1ccc(Cl)cc1)CCC(O)(P(=O)(O)O)P(=O)(O)O` had an IC50 of 3.12 nM.

As for `CN(CCCOc1ccc(F)cc1)CCC(O)(P(=O)(O)O)P(=O)(O)O`, the IC50 is 1.45 nM.

In the case of `O=P(O)(O)C(Nc1ncc(CCc2ccccc2)s1)P(=O)(O)O`, the IC50 is 7.08 nM.

`O=P(O)(O)C(O)(CCn1ccnc1)P(=O)(O)O` showed an IC50 of 157 nM.

Molecule `CN(CCCOc1ccccc1)CCCC(O)(P(=O)(O)O)P(=O)(O)O` had a concentration for half-maximal inhibition (IC50) of 246 nM. This IC50 is about 1.6-fold higher than that of the molecule before.

`CCN(CCCOc1ccccc1)CCC(O)(P(=O)(O)O)P(=O)(O)O` had an IC50 of 72.1 nM.

The molecule `CN(CCCOc1ccccc1)CCC(O)(P(=O)(O)O)P(=O)(O)O` showed an IC50 of 1.29 nM.

For `CN(CCCSc1ccc(Cl)cc1)CCC(O)(P(=O)(O)O)P(=O)(O)O`, the IC50 was 18 nM.

On to `O=P(O)(O)C(O)(CCNCCCc1ccccc1)P(=O)(O)O`, for which the IC50 is 55.8 nM.

In turn, `Cc1csc(NC(P(=O)(O)O)P(=O)(O)O)n1` gave a half-maximal inhibitory concentration (IC50) of 347 nM. This IC50 lies about 6.2-fold higher than the previous one.

For `CN(CCc1ccccc1)CCC(O)(P(=O)(O)O)P(=O)(O)O`, the IC50 is 3.92 nM.

As for `CN(CCCCOc1ccccc1)CCC(O)(P(=O)(O)O)P(=O)(O)O`, the IC50 was 10.1 nM. This IC50 lies about 2.6-fold higher than the previous one.

`O=P(O)(O)C(O)(CCNCCCOc1ccccc1)P(=O)(O)O` gave an IC50 of 3.25 nM.

`COc1ccc(OCCCN(C)CCC(O)(P(=O)(O)O)P(=O)(O)O)cc1` showed an IC50 of 2.82 nM.

`CN(CCCCCCc1ccccc1)CCC(O)(P(=O)(O)O)P(=O)(O)O` showed an IC50 of 3630 nM.

Molecule `Cc1nc[nH]c1CC(O)(P(=O)(O)O)P(=O)(O)O` gave an IC50 of 5.13 nM.

`O=P(O)(O)C(Nc1nccn1Cc1ccccc1)P(=O)(O)O` gave an IC50 of 185 nM. This IC50 is about 36-fold higher than that of the molecule before.

`CCCN(CCCOc1ccccc1)CCC(O)(P(=O)(O)O)P(=O)(O)O` gave an IC50 of 24 nM.

With `CN(CCOc1ccc(Cl)cc1)CCC(O)(P(=O)(O)O)P(=O)(O)O`, the IC50 is 4.07 nM.

As to `Cn1ccnc1NC(P(=O)(O)O)P(=O)(O)O`, half-maximal inhibition (IC50) was put at 18.5 nM.

`CN(CCCCCCOc1ccccc1)CCC(O)(P(=O)(O)O)P(=O)(O)O` gave an IC50 of 17600 nM.

Molecule `CN(CCCc1ccccc1)CCC(O)(P(=O)(O)O)P(=O)(O)O` showed an IC50 of 2.59 nM. This IC50 lies about 6800-fold lower than the previous one.

On to `O=P(O)(O)C(O)(CCNCCCCc1ccccc1)P(=O)(O)O`, for which the IC50 was 2.69 nM.

On to `O=P(O)(O)C(O)(Cc1ncc[nH]1)P(=O)(O)O`, for which the IC50 is 17.8 nM.

In turn, `CCCCN(CCCOc1ccccc1)CCC(O)(P(=O)(O)O)P(=O)(O)O` had an IC50 of 1170 nM.

With `CC(C)c1cnc(NC(P(=O)(O)O)P(=O)(O)O)s1`, the IC50 is 632 nM. This IC50 lies about 1.9-fold lower than the previous one.

Turning to `O=P(O)(O)C(O)(CCNCCc1ccccc1)P(=O)(O)O`, half-maximal inhibition (IC50) was put at 885 nM.

As to `O=P(O)(O)C(O)(CCc1cnc[nH]1)P(=O)(O)O`, the IC50 was 66.7 nM.

In turn, `CCCCc1cnc(NC(P(=O)(O)O)P(=O)(O)O)s1` gave an IC50 of 2.69 nM.

On to `O=P(O)(O)C(Cc1nccs1)P(=O)(O)O`, for which the IC50 was 733 nM.

`Cc1ncn(CC(O)(P(=O)(O)O)P(=O)(O)O)c1C` gave an IC50 of 5 nM. This IC50 is about 150-fold lower than that of the molecule before.

Take `O=C(c1ccccc1)n1ccnc1CC(O)(P(=O)(O)O)P(=O)(O)O`: the IC50 was 64.6 nM.

Turning to `O=P(O)(O)C(O)(Cn1cncn1)P(=O)(O)O`, the IC50 is 2200 nM.
